Measured values reported in patent US10670605B2, “Cysteine reactive probes and uses thereof” (The Scripps Research Institute, priority 2015, dated 2020).

Columns and labels:
Experiment in all cases: Competitive isoTOP-ABPP in situ (fragment-treated cells)
Type in all cases: cell-based
[1] = molecular target: T1, cysteines in MDA-MB-231 and Ramos cells (Homo sapiens, UniProt O14879); conditions: 200 μM, insitu, 231
T1 sequence (O14879 1-490): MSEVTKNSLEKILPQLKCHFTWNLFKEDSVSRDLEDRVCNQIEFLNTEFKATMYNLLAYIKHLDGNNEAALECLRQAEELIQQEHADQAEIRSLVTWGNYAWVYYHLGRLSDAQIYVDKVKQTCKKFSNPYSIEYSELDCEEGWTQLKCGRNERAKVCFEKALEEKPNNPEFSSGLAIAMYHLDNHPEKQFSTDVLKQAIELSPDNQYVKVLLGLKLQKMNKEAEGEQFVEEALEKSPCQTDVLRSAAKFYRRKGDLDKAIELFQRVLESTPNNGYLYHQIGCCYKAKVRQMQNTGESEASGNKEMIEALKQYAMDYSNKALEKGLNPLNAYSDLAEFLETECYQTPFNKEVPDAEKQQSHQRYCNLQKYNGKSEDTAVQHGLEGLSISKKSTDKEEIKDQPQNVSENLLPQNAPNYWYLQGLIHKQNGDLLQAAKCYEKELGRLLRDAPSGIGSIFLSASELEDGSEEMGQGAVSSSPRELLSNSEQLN
Method: (§1) Fragments 4 and 11 were screened at 100 μM in situ. […] Site-specific engagement of electrophilic fragments was assessed by blockade of IA-alkyne probe labeling. […] Ratios for unique peptide entries were calculated for each experiment; overlapping peptides with the same modified cysteine (e.g. different charge states, MudPIT chromatographic steps or tryptic termini) were grouped together and the median ratio was reported as the final ratio (R). The peptide ratios reported by CIMAGE were further filtered to ensure the removal or correction of low quality ratios in each individual dataset. […] R values were calculated and individual datasets were filtered as described above (R value calculation and processing).

[2] = molecular target: cysteines in MDA-MB-231 and Ramos cells (Homo sapiens, UniProt Q7Z2W4); conditions: 200 μM, insitu
cysteines in MDA-MB-231 and Ramos cells (Homo sapiens, UniProt Q7Z2W4), sequence (Q7Z2W4 whole entry): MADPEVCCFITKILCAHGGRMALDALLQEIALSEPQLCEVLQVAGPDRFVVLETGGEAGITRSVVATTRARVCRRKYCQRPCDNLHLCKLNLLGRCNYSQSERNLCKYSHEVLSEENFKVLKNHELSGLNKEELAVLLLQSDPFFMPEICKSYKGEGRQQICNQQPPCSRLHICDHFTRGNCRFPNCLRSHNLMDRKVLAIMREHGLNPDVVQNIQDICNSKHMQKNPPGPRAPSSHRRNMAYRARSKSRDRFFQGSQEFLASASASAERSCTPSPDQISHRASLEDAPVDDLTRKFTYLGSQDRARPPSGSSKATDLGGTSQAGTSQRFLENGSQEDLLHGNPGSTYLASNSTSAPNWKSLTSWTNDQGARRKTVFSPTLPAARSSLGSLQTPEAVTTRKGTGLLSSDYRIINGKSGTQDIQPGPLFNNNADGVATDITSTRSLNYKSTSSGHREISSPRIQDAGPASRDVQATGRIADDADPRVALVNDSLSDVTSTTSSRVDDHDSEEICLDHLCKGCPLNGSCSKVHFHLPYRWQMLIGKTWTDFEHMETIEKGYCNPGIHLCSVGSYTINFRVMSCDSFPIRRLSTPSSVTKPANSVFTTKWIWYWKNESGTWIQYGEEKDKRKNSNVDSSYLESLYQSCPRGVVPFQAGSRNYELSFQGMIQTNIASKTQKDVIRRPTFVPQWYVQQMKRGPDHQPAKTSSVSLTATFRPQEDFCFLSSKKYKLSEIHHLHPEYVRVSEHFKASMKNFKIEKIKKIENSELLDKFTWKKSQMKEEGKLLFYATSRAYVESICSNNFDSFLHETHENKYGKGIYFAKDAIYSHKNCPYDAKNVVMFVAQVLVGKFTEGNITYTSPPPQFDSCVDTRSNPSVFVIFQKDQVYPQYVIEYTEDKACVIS
Method: as §1

[3] = molecular target: T2, cysteines in MDA-MB-231 and Ramos cells (Homo sapiens, UniProt Q9NQR4); conditions: 200 μM, insitu
T2 sequence (Q9NQR4 1-276): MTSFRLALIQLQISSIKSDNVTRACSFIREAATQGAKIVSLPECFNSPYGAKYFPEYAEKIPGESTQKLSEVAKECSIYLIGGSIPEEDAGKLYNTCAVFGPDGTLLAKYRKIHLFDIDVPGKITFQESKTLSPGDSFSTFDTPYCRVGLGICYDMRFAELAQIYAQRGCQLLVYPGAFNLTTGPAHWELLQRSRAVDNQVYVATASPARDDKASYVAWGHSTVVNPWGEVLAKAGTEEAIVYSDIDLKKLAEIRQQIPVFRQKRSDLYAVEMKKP
Method: as §1

[4] = molecular target: T3, cysteines in MDA-MB-231 and Ramos cells (Homo sapiens, UniProt Q9HCC0); conditions: 200 μM, insitu
T3 sequence (Q9HCC0 23-563): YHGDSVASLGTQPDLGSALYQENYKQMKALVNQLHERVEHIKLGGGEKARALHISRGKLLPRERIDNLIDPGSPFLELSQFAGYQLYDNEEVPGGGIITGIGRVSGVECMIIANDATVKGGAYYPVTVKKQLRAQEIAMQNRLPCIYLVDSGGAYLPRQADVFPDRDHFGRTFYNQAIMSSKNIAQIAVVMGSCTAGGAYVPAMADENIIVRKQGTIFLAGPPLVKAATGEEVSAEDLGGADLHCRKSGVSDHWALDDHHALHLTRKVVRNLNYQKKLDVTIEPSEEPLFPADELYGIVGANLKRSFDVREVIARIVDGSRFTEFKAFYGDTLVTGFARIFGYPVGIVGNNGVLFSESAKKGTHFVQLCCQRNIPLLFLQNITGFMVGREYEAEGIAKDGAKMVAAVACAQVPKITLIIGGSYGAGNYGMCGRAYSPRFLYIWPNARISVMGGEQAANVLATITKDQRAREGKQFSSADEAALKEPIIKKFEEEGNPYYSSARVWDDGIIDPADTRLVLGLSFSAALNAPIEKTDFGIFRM
Method: as §1

[5] = molecular target: T4, cysteines in MDA-MB-231 and Ramos cells (Homo sapiens, UniProt P21980); conditions: 200 μM, insitu, 231
T4 sequence (P21980 1-687): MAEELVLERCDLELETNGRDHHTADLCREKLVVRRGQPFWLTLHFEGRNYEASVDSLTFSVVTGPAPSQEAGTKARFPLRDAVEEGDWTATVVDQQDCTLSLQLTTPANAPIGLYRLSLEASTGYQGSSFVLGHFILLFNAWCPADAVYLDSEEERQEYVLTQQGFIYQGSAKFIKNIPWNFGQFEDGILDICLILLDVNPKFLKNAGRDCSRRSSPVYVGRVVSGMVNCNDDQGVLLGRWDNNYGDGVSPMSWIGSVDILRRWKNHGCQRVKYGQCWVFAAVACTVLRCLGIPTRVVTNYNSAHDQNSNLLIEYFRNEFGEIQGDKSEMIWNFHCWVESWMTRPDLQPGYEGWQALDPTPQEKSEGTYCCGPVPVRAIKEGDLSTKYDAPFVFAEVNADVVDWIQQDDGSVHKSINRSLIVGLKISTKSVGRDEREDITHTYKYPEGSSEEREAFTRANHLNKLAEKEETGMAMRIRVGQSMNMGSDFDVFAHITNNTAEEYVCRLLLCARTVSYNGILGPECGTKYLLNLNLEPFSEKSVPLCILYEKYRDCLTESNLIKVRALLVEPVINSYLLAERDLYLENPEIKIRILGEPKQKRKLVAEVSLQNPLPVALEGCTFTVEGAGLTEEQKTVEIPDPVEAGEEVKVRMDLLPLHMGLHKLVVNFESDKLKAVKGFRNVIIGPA
Method: as §1

[6] = molecular target: T5, cysteines in MDA-MB-231 and Ramos cells (Homo sapiens, UniProt Q86SX6); conditions: 200 μM, insitu
T5 sequence (Q86SX6 32-157): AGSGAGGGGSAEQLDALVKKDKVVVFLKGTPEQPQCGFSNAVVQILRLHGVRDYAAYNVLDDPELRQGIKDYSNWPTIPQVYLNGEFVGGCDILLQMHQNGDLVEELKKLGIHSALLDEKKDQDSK
Method: as §1

[7] = molecular target: cysteines in MDA-MB-231 and Ramos cells (Homo sapiens, UniProt Q9NUY8); conditions: 200 μM, insitu
cysteines in MDA-MB-231 and Ramos cells (Homo sapiens, UniProt Q9NUY8), sequence (Q9NUY8 whole entry): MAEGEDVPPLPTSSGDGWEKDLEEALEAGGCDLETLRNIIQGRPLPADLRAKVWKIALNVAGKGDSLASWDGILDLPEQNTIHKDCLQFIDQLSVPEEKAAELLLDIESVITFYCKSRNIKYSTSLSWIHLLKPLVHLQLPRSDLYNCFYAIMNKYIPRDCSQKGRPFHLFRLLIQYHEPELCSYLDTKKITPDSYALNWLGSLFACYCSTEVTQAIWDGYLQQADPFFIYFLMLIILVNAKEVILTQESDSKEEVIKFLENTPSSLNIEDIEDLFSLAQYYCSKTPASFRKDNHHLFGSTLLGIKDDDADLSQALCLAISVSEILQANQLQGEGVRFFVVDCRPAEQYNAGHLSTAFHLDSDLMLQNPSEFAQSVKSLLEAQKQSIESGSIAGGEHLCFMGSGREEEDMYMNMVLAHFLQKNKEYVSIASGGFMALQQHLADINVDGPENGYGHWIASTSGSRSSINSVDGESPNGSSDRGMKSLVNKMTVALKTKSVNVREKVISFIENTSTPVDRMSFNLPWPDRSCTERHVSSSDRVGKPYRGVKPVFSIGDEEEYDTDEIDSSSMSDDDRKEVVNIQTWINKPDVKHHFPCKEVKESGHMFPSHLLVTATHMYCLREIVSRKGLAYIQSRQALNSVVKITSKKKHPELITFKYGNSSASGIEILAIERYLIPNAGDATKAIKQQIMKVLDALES
Method: as §1

[8] = molecular target: cysteines in MDA-MB-231 and Ramos cells (Homo sapiens, UniProt Q9NYL2); conditions: 200 μM, insitu
cysteines in MDA-MB-231 and Ramos cells (Homo sapiens, UniProt Q9NYL2), sequence (Q9NYL2 whole entry): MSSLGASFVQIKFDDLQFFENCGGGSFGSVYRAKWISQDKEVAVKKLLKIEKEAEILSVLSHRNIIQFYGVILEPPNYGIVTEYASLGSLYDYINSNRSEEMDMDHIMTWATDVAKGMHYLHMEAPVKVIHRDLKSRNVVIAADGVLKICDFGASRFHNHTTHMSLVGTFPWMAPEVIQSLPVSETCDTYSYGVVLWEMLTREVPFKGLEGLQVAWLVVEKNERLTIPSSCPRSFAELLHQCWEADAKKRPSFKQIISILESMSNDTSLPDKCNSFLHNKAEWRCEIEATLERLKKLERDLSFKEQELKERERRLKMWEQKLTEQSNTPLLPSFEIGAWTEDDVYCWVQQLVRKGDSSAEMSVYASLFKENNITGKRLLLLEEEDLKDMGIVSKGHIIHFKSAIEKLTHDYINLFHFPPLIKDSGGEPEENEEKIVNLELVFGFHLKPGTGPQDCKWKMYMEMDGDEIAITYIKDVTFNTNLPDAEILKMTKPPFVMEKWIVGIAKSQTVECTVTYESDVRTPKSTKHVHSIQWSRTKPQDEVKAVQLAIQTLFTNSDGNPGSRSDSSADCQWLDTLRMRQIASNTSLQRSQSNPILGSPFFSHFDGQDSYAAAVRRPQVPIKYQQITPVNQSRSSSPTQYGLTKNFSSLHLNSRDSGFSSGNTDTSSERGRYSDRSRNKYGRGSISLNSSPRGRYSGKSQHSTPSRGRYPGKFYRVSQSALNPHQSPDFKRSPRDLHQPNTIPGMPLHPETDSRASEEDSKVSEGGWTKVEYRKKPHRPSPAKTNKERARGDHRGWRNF
Method: as §1

[9] = molecular target: T6, cysteines in MDA-MB-231 and Ramos cells (Homo sapiens, UniProt Q13162); conditions: 200 μM, insitu
T6 sequence (Q13162 38-271): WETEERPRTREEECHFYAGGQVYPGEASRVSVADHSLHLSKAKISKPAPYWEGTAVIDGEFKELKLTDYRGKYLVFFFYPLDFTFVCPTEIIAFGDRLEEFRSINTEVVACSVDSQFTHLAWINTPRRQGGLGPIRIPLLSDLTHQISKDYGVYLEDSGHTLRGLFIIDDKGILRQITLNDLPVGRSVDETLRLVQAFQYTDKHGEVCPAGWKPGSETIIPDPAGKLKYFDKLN
Method: as §1

SMILES	isoTOP-ABPP ratio O14879_C343 [1]	isoTOP-ABPP ratio Q7Z2W4_C645 [2]; 231	isoTOP-ABPP ratio Q9NQR4_C153 [3]; 231	isoTOP-ABPP ratio Q9HCC0_C216 [4]; 231	isoTOP-ABPP ratio P21980_C277 [5]	isoTOP-ABPP ratio Q86SX6_C67 [6]; 231	isoTOP-ABPP ratio Q9NUY8_C283 [7]; 231	isoTOP-ABPP ratio Q86SX6_C67 ([6]; ramos)	also measured
O=C(CCl)Nc1cccc2ncccc12 [compound 51]	1.3	1.6	0.6	0.9	1.0	1.0	2.1		
O=C(CCl)N1CCN(CC(=O)N2CCOCC2)CC1 [compound 29]								1.2	isoTOP-ABPP ratio Q9NYL2_C22 ([8]; ramos): 1.2; isoTOP-ABPP ratio Q7Z2W4_C645 ([2]; ramos): 1.6; isoTOP-ABPP ratio Q9NUY8_C283 ([7]; ramos): 1.3
O=C(CCl)N1CCC(Cc2ccccc2)CC1 [compound 9]									isoTOP-ABPP reactivity Q13162_C51 PRDX4 [9]; 231: 3.3; isoTOP-ABPP reactivity Q9NYL2_C22 MUTK Mitogen-activated protein kinase MLTK [8]; 231: 10.3; isoTOP-ABPP reactivity O14879_C343 IFIT3 [1]: 17.2; isoTOP-ABPP reactivity Q7Z2W4_C645 ZC3HAV1 [2]; 231: 3.0; isoTOP-ABPP reactivity Q9NQR4_C153 N1T2 [3]; 231: 20.0; isoTOP-ABPP reactivity P21980_C277 TGM2 [5]: 2.3; isoTOP-ABPP reactivity Q865X6_C67 GLRX5 [6]; 231: 5.1; isoTOP-ABPP reactivity Q9NUY8_C283 TBC1D23 [7]; 231: 2.1
O=C(CCl)NC12CC3CC(CC(C3)C1)C2 [compound 21]	0.8	0.9	0.9	2.2	0.7	1.4	0.8		isoTOP-ABPP ratio Q13162_C51 [9]; 231: 1.7
COc1ccccc1OCCNC(=O)CCl [compound 28]	0.7				0.4		0.7		
O=C(CCl)NCCc1c[nH]c2ccccc12 [compound 13]	1.0	1.3	6.2		0.8	10.3	1.1	12.4	isoTOP-ABPP ratio Q9NYL2_C22 [8]; 231: 1.3; isoTOP-ABPP ratio Q7Z2W4_C645 ([2]; ramos): 0.9; isoTOP-ABPP ratio Q9NQR4_C153 ([3]; ramos): 12.2; isoTOP-ABPP ratio Q9HCC0_C216 ([4]; ramos): 1.8; isoTOP-ABPP ratio Q9NUY8_C283 ([7]; ramos): 1.1
Cc1ccc(C=C(C#N)C(=O)NCCN2CCOCC2)cc1 [compound 41]	0.3	0.9	0.7	1.0	0.6	1.0	0.7		isoTOP-ABPP ratio Q9NYL2_C22 [8]; 231: 0.6
C=CC(=O)Nc1cc(F)c(N2CCN(C(=O)OC(C)(C)C)CC2)c(F)c1 [compound 38]		0.9	1.1		1.4	1.0	1.0		isoTOP-ABPP ratio Q13162_C51 [9]; 231: 2.4
C=CC(=O)N(Cc1cccnc1)c1cc(C(F)(F)F)cc(C(F)(F)F)c1 [compound 31]	0.9		0.6				0.6	0.7	isoTOP-ABPP ratio Q13162_C51 ([9]; ramos): 1.3; isoTOP-ABPP ratio Q9NQR4_C153 ([3]; ramos): 1.4
